This is an account of results in patent US9434743B2, “Indazole derivatives” (TAKEDA PHARMACEUTICAL COMPANY LIMITED, priority 2012, dated 2016).

Broadly, the IC50 is the concentration needed to halve the response being measured. Higher therefore signals a need for much substance.

Structures are written as SMILES.

The target in assay [1] is T1, human MetAP2 enzyme (Homo sapiens, UniProt P50579). Description: MetAP2 enzyme assay, enzyme complexed with cobalt ions. Conditions: MetAP2 Co pIC50, MetAP2 enzyme complexed with cobalt ions; Met-AMC substrate at Km.
T1 sequence (P50579 whole entry): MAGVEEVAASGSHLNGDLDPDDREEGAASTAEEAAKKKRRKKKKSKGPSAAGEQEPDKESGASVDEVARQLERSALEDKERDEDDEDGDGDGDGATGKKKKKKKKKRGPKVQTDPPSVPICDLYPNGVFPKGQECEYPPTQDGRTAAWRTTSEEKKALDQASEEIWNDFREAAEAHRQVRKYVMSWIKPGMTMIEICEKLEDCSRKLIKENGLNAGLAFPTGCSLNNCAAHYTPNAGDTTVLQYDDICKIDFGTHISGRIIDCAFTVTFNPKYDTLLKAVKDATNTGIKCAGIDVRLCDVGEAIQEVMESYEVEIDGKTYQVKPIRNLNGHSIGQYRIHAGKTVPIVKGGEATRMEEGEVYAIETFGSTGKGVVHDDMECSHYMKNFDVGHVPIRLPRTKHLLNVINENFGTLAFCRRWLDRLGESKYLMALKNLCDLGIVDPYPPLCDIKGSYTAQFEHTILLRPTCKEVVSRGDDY
Method: DNA encoding the full-length sequence of human MetAP2 enzyme is amplified by PCR and cloned into a pFastBac expression vector (Invitrogen). Recombinant baculovirus incorporating the MetAP2 construct is generated by transposition using the Bac-to-Bac system (Invitrogen). The expression of recombinant protein is carried out by infection of Spodoptera frugiperda Sf9 cells (Invitrogen) in 5 L Wave Bioreactors (Wave Biotech). Recombinant protein is isolated from cellular extracts by binding to an SP Hitrap Fast Flow or SP Sepharose (Sigma) column, and the protein is eluted using a NaCl gradient. Partially purified extracts of MetAP2 are further purified by an AKTA FPLC over a Superdex-200 column (GE). The purity of MetAP2 protein is determined on denaturing SDS-PAGE gel.
The results for each well are expressed as percent inhibition and calculated using the equation:
The target of assay [2] is T1, human MetAP2 enzyme. Description: MetAP2 enzyme assay, enzyme complexed with manganese ions. The conditions noted are these: MetAP2 Mn pIC50, MetAP2 enzyme complexed with manganese ions; Met-AMC substrate at Km.

In the case of `Cc1nc(N2CCN[C@H](C)C2)ccc1-c1cc(C(F)(F)F)cc2[nH]ncc12` [Example 414, (R)-4-(2-methyl-6-(3-methylpiperazin-1-yl)pyridin-3-yl)-6-(trifluoromethyl)-1H-indazole], the IC50 in assay [1] is 10 nM; in assay [2] it was 3.98 nM.
Regarding `CN1CCN(C(=O)c2cnc(N)c(-c3cc(C(F)(F)F)cc4[nH]ncc34)c2)CC1` [Example 221, (6-amino-5-(6-(trifluoromethyl)-1H-indazol-4-yl)pyridin-3-yl)(4-methylpiperazin-1-yl)methanone], the figures for the IC50 in assay [1] and in assay [2] were 63.1 nM and 10 nM, respectively.
For `Cc1nn(CCC#N)c(C)c1-c1cc(C(F)(F)F)cc2[nH]ncc12` [Example 174, 3-(3,5-dimethyl-4-(6-(trifluoromethyl)-1H-indazol-4-yl)-1H-pyrazol-1-yl)propanenitrile], the figures for the IC50 in assay [1] and in assay [2] were 63.1 nM and 12.6 nM, respectively.
With `Cc1c(-c2cc(C(F)(F)F)cc3[nH]ncc23)ccc(=O)n1Cc1ccccn1` [Example 407, 6-methyl-1-(pyridin-2-ylmethyl)-5-(6-(trifluoromethyl)-1H-indazol-4-yl)pyridin-2(1H)-one], the IC50 was 79.4 nM in assay [1] and 12.6 nM in assay [2].
As to `Cc1nc(N2C[C@H]3C[C@H]3C2C(N)=O)ncc1-c1cc(C(F)(F)F)cc2[nH]ncc12` (stereo partly drawn) [Example 415, (1R,5S)-3-(4-methyl-5-(6-(trifluoromethyl)-1H-indazol-4-yl)pyrimidin-2-yl)-3-azabicyclo[3.1.0]hexane-2-carboxamide], the IC50 in assay [1] is 10 nM; in assay [2], 7.94 nM.
In the case of `CCN(CC)C(=O)c1cccc(-c2cc(C(F)(F)F)cc3[nH]ncc23)c1` [Example 32, N,N-diethyl-3-(6-(trifluoromethyl)-1H-indazol-4-yl)benzamide], the results for the IC50 in assay [1] and in assay [2] were 39.8 nM and 20 nM, respectively.
Consider `NS(=O)(=O)c1ccc(-c2cc(C(F)(F)F)cc3[nH]ncc23)c(F)c1` [Example 342, 3-fluoro-4-(6-(trifluoromethyl)-1H-indazol-4-yl)benzenesulfonamide], for which the IC50 in assay [1] was 39.8 nM; in assay [2] it was 6.31 nM.
Turning to `FC(F)(F)c1cc(-c2cnn(CCN3CCOCC3)c2)c2cn[nH]c2c1` [Example 74, 4-(2-(4-(6-(trifluoromethyl)-1H-indazol-4-yl)-1H-pyrazol-1-yl)ethyl)morpholine], the IC50 in assay [1] was 50.1 nM; in assay [2], 3.98 nM.
As to `FC(F)(F)c1cc(-c2cc[nH]n2)c2cn[nH]c2c1` [Example 13, 4-(1H-pyrazol-3-yl)-6-(trifluoromethyl)-1H-indazole], the IC50 was 398 nM in assay [1] and 10 nM in assay [2].
The corresponding values for `Cc1ncccc1-c1cc(C(F)(F)F)cc2[nH]ncc12` [Example 50, 4-(2-methylpyridin-3-yl)-6-(trifluoromethyl)-1H-indazole] are 31.6 nM and 5.01 nM.
Taken in the same sequence, the figures for `OC(COc1ccccc1-c1cc(C(F)(F)F)cc2[nH]ncc12)CN1CCOCC1` (stereo not drawn) [Example 180, 1-morpholino-3-(2-(6-(trifluoromethyl)-1H-indazol-4-yl)phenoxy)propan-2-ol] were 1000 nM and 39.8 nM.
On to `NC(=O)Cc1cccc(-c2cc(C(F)(F)F)cc3[nH]ncc23)c1` [Example 38, 2-(3-(6-(trifluoromethyl)-1H-indazol-4-yl)phenyl)acetamide], for which the IC50 in assay [1] was 50.1 nM; in assay [2] it was 10 nM.
In the case of `CC(C)Oc1ncccc1-c1cc(C(F)(F)F)cc2[nH]ncc12` [Example 143, 4-(2-isopropoxypyridin-3-yl)-6-(trifluoromethyl)-1H-indazole], the IC50 in assay [1] is 63.1 nM; in assay [2], 15.8 nM.
Consider `CS(=O)(=O)Nc1ccc(-c2cc(C(F)(F)F)cc3[nH]ncc23)cc1` [Example 56, N-(4-(6-(trifluoromethyl)-1H-indazol-4-yl)phenyl)methanesulfonamide], for which the results for the IC50 in assay [1] and in assay [2] were 39.8 nM and 12.6 nM, respectively.
On to `FC(F)(F)c1cc(-c2cnc(NC3CC3)nc2)c2cn[nH]c2c1` [Example 197, N-cyclopropyl-5-(6-(trifluoromethyl)-1H-indazol-4-yl)pyrimidin-2-amine], for which the IC50 in assay [1] was 63.1 nM; in assay [2], 6.31 nM.
As for `COc1nc(Cl)ccc1-c1cc(C(F)(F)F)cc2[nH]ncc12` [Example 392, 4-(6-chloro-2-methoxypyridin-3-yl)-6-(trifluoromethyl)-1H-indazole], the IC50 was 200 nM in assay [1] and 12.6 nM in assay [2].
Taken in the same sequence, the figures for `NC(=O)c1ccccc1-c1cc(C(F)(F)F)cc2[nH]ncc12` [Example 10, 2-(6-(trifluoromethyl)-1H-indazol-4-yl)benzamide] were 1260 nM and 31.6 nM.
On to `Cc1[nH]c(=O)[nH]c(=O)c1-c1cc(C(F)(F)F)cc2[nH]ncc12` [Example 204, 6-methyl-5-(6-(trifluoromethyl)-1H-indazol-4-yl)pyrimidine-2,4(1H,3H)-dione], for which the IC50 was 794 nM in assay [1] and 15.8 nM in assay [2].
For the molecule `COc1ccc(CC(=O)N2CCOCC2)cc1-c1cc(C(F)(F)F)cc2[nH]ncc12` [Example 316, 2-(4-methoxy-3-(6-(trifluoromethyl)-1H-indazol-4-yl)phenyl)-1-morpholinoethanone], the IC50 in assay [1] is 50.1 nM; in assay [2] it was 10 nM.
As for `OCc1ccccc1-c1cc(C(F)(F)F)cc2[nH]ncc12` [Example 12, (2-(6-(trifluoromethyl)-1H-indazol-4-yl)phenyl)methanol], the IC50 was 39.8 nM in assay [1] and 3.16 nM in assay [2].
With `Nc1cc(Cl)cnc1-c1cc(C(F)(F)F)cc2[nH]ncc12` [Example 216, 5-chloro-2-(6-(trifluoromethyl)-1H-indazol-4-yl)pyridin-3-amine], the values for the IC50 in assay [1] and in assay [2] were 398 nM and 10 nM, respectively.
With `FC(F)(F)c1cc(-c2cccnc2OCc2ccccc2)c2cn[nH]c2c1` [Example 99, 4-(2-(benzyloxy)pyridin-3-yl)-6-(trifluoromethyl)-1H-indazole], the IC50 in assay [1] is 631 nM; in assay [2], 39.8 nM.
The corresponding values for `CCOC(=O)Cn1cc(-c2cc(C(F)(F)F)cc3[nH]ncc23)cn1` [Example 260, ethyl 2-(4-(6-(trifluoromethyl)-1H-indazol-4-yl)-1H-pyrazol-1-yl)acetate] are 100 nM and 6.31 nM.
Take `Cc1ncsc1-c1cc(C(F)(F)F)cc2[nH]ncc12` [Example 177, 4-methyl-5-(6-(trifluoromethyl)-1H-indazol-4-yl)thiazole]: the IC50 in assay [1] is 50.1 nM; in assay [2], 3.98 nM.
The corresponding values for `Cc1n[nH]cc1-c1cc(C(F)(F)F)cc2[nH]ncc12` [Example 22, 4-(3-methyl-1H-pyrazol-4-yl)-6-(trifluoromethyl)-1H-indazole] are 39.8 nM and 5.01 nM.
Turning to `Cc1nn(C)cc1-c1cc(C(F)(F)F)cc2[nH]ncc12` [Example 39, 4-(1,3-dimethyl-1H-pyrazol-4-yl)-6-(trifluoromethyl)-1H-indazole], the values for the IC50 in assay [1] and in assay [2] were 31.6 nM and 12.6 nM, respectively.
Taken in the same sequence, the figures for `FC(F)(F)c1cc(-c2cnc3[nH]ncc3c2)c2cn[nH]c2c1` [Example 243, 5-(6-(trifluoromethyl)-1H-indazol-4-yl)-1H-pyrazolo[3,4-b]pyridine] were 39.8 nM and 5.01 nM.
Taken in the same sequence, the figures for `O=C(NCC(O)CO)c1c[nH]c(=O)c(-c2cc(C(F)(F)F)cc3[nH]ncc23)c1` (stereo not drawn) [Example 337, N-(2,3-dihydroxypropyl)-6-oxo-5-(6-(trifluoromethyl)-1H-indazol-4-yl)-1,6-dihydropyridine-3-carboxamide] were 398 nM and 15.8 nM.
For `O=C(NC1CC1)c1ccc(-c2cc(C(F)(F)F)cc3[nH]ncc23)cc1` [Example 35, N-cyclopropyl-4-(6-(trifluoromethyl)-1H-indazol-4-yl)benzamide], the results for the IC50 in assay [1] and in assay [2] were 25.1 nM and 7.94 nM, respectively.
Turning to `Cc1cnc(N)c(-c2cc(C(F)(F)F)cc3[nH]ncc23)c1` [Example 193, 5-methyl-3-(6-(trifluoromethyl)-1H-indazol-4-yl)pyridin-2-amine], the IC50 in assay [1] was 63.1 nM; in assay [2] it was 6.31 nM.
Taken in the same sequence, the figures for `Cc1nc(-n2cnnc2)ccc1-c1cc(C(F)(F)F)cc2[nH]ncc12` [Example 383, 4-(2-methyl-6-(4H-1,2,4-triazol-4-yl)pyridin-3-yl)-6-(trifluoromethyl)-1H-indazole] were 20 nM and 5.01 nM.
For `COc1cc(C(=O)N2CCOCC2)ccc1-c1cc(C(F)(F)F)cc2[nH]ncc12` [Example 318, (3-methoxy-4-(6-(trifluoromethyl)-1H-indazol-4-yl)phenyl)(morpholino)methanone], the IC50 in assay [1] is 39.8 nM; in assay [2], 12.6 nM.
Turning to `COc1ccc(C)nc1-c1cc(C(F)(F)F)cc2[nH]ncc12` [Example 200, 4-(3-methoxy-6-methylpyridin-2-yl)-6-(trifluoromethyl)-1H-indazole], the IC50 in assay [1] was 316 nM; in assay [2] it was 50.1 nM.
The corresponding values for `Cc1nc(C)c(-c2cc(C(F)(F)F)cc3[nH]ncc23)s1` [Example 40, 2,4-dimethyl-5-(6-(trifluoromethyl)-1H-indazol-4-yl)thiazole] are 39.8 nM and 10 nM.
Regarding `CNC(=O)c1ncncc1-c1cc(C(F)(F)F)cc2[nH]ncc12` [Example 254, N-methyl-5-(6-(trifluoromethyl)-1H-indazol-4-yl)pyrimidine-4-carboxamide], the values for the IC50 in assay [1] and in assay [2] were 794 nM and 31.6 nM, respectively.
For `Cn1cnc(N)c(-c2cc(C(F)(F)F)cc3[nH]ncc23)c1=O` [Example 245, 6-amino-3-methyl-5-(6-(trifluoromethyl)-1H-indazol-4-yl)pyrimidin-4(3H)-one], the IC50 in assay [1] was 1580 nM; in assay [2], 31.6 nM.
